Results as given in ChEMBL document CHEMBL4765410, “A cell-penetrant lactam-stapled peptide for targeting eIF4E protein-protein interactions” (Eur J Med Chem, 2020).
Calls of active or inactive are those of the source. The rule behind the calls is not given here. Bridge positions count the residues as written; N and C are the ends. Peptide text beside a SMILES is read from it.

Assays:
[1] = molecular target: T1, Eukaryotic translation initiation factor 4E (Homo sapiens, UniProt P06730); experiment: Binding affinity to recombinant human 10His-tagged eIF4E expressed in Escherichia coli BL21 (DE3) cells assessed as association constant by surface plasmon resonance analysis
[2] = molecular target: T1, Eukaryotic translation initiation factor 4E; experiment: Inhibition of recombinant human 10His-tagged eIF4E expressed in Escherichia coli BL21 (DE3) cells by catalytic enzyme-linked click chemistry assay
[3] = molecular target: T1, Eukaryotic translation initiation factor 4E; experiment: Binding affinity to recombinant human 10His-tagged eIF4E expressed in Escherichia coli BL21 (DE3) cells assessed as binding constant by surface plasmon resonance analysis
[4] = molecular target: T1, Eukaryotic translation initiation factor 4E; experiment: Binding affinity to eIF4E in HEK293 cell lysates assessed as thermal stabilization of protein at 1 to 15 uM incubated for 1 hrs followed by heating at 49 to 52.4 degC for 3 mins by CETSA-based Western blot analysis; assay type: subcellular; details: dose 1-15 µM
[5] = Drug uptake in cytosol of human HeLa cells stably expressing Halo-tagged-GFP assessed as normalized fluorescence in cytosol incubated for 4 hrs by flow cytometry based CAPA; assay type: ADME, subcellular
[6] = Drug uptake in cytosol of human HeLa cells stably expressing Halo-tagged-GFP assessed as normalized fluorescence in cytosol at 0.74 uM incubated for 4 hrs by flow cytometry based CAPA relative to control; assay type: ADME, subcellular
[7] = molecular target: T2, EIF4E/EIF4G1 (Homo sapiens) (UniProt P06730+Q04637); experiment: Inhibition of eIF4E/eIF4G interaction in human MDA-MB-231 cells incubated for 6 hr by m7GDP cap pull down assay; assay type: cell-based
[8] = molecular target: T2, EIF4E/EIF4G1 (Homo sapiens); experiment: Inhibition of eIF4E/eIF4G interaction in human MCF7 cells incubated for 6 hr by m7GDP cap pull down assay; assay type: cell-based
[9] = molecular target: T2, EIF4E/EIF4G1 (Homo sapiens); experiment: Inhibition of eIF4E/eIF4G interaction in human T47D cells incubated for 6 hr by m7GDP cap pull down assay; assay type: cell-based
MDA-MB-231 = experiment: Anti-proliferative activity against human MDA-MB-231 cells after 6 days by CellTiter-Glo assay; assay type: functional, cell-based; details: time 6.0 day
MCF7 = experiment: Anti-proliferative activity against human MCF7 cells after 6 days by CellTiter-Glo assay; assay type: functional, cell-based; details: time 6.0 day
T47D = experiment: Anti-proliferative activity against human T47D cells after 6 days by CellTiter-Glo assay; assay type: functional, cell-based; details: time 6.0 day
[10] = molecular target: T1, Eukaryotic translation initiation factor 4E; experiment: Inhibition of eIF4E in human MCF7 cells measured up to 42 hrs by m7GDP cap pull down assay; assay type: cell-based; details: time hrs <=42

T1 sequence (P06730 whole entry): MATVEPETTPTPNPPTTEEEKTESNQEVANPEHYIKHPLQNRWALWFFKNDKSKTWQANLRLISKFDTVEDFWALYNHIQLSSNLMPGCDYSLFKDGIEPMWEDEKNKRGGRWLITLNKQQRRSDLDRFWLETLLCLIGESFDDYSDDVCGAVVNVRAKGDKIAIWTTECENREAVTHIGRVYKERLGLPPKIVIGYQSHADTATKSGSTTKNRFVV

Ka [1] | IC50 [2] | Kd [3] | Activity [4] | Q50 [5] | Drug uptake [6] | inhibition [7] | inhibition [8] | inhibition [9] | Activity [10] | SMILES | Activity (MDA-MB-231) | Activity (MCF7) | Activity (T47D)
630000 M⁻¹ s⁻¹ |  |  |  |  |  |  |  |  |  | CC[C@H](C)[C@H](NC(=O)[C@H](CCCNC(=N)N)NC(=O)[C@@H](NC(=O)CNC(C)=O)[C@@H](C)O)C(=O)N[C@H](C(=O)N[C@@H](Cc1ccc(O)cc1)C(=O)N[C@@H](CC(=O)O)C(=O)N[C@@H](CCCNC(=N)N)C(=O)N[C@@H](CCCCN)C(=O)N[C@@H](Cc1ccccc1)C(=O)N[C@@H](CC(C)C)C(=O)N[C@@H](CCSC)C(=O)N[C@@H](CCC(=O)O)C(=O)N[C@@H](CS)C(=O)N[C@@H](CCCNC(=N)N)C(=O)N[C@@H](CC(N)=O)C(N)=O)[C@@H](C)CC |  |  | 
3.1e+06 M⁻¹ s⁻¹ | 6.5 nM | 2.2 nM | Active | 1.5 µM | 20% | Dose-dependent effect | Dose-dependent effect | Dose-dependent effect | Active | CC[C@H](C)[C@H](NC(=O)[C@H](CCCNC(=N)N)NC(C)=O)C(=O)N[C@H](C(=O)N[C@@H](Cc1ccc(O)cc1)C(=O)N[C@@H](CC(=O)O)C(=O)N[C@@H](CCCNC(=N)N)C(=O)N[C@H]1CCC(=O)NCCCC[C@@H](C(=O)N[C@@H](CS)C(=O)N[C@@H](CCCNC(=N)N)C(N)=O)NC(=O)[C@H](CCSC)NC(=O)[C@H](CC(C)C)NC(=O)[C@H](Cc2ccccc2)NC1=O)[C@@H](C)CC (Ac-RIIYDREFLMKCR-NH2; lactam 7-11) | inactive | inactive | inactive
580000 M⁻¹ s⁻¹ | 22 nM | 7.2 nM | inactive | 0.25 µM | 84% |  |  |  |  | CC[C@H](C)[C@H](NC(=O)[C@H](CCCNC(=N)N)NC(C)=O)C(=O)N[C@H](C(=O)N[C@@H](Cc1ccc(O)cc1)C(=O)N[C@@H](CC(=O)O)C(=O)N[C@@H](CCCNC(=N)N)C(=O)N[C@H]1CCCCNC(=O)CC[C@@H](C(=O)N[C@@H](CS)C(=O)N[C@@H](CCCNC(=N)N)C(N)=O)NC(=O)[C@H](CCSC)NC(=O)[C@H](CC(C)C)NC(=O)[C@H](Cc2ccccc2)NC1=O)[C@@H](C)CC (Ac-RIIYDRKFLMECR-NH2; lactam 7-11) |  |  | 
